Experimental data from patent publication US9682962B2, “Pyrazolyl pyrimidinamine compound and application thereof” (SHENYANG SINOCHEM AGROCHEMICALS R&D CO., LTD., priority 2013, dated 2017).

Experiments:
[1] = test system: Green peach aphids (Myzus Persicae Sulzer); test: Bioactivity test against green peach aphid (airbrush foliar spray); assay type: in vivo
Procedure: Compounds were dissolved in mixed solvent (acetone:methanol=1:1), and diluted to required concentration with water containing 0.1% of tween 80.
Diamond back moth, armyworm, peach aphid and carmine spider mite were used as targets and the method of spraying by airbrush was used for determination of insecticidal bioassays.
Method: Filter papers were put in culture dishes (Diameter=6 cm), and water was dripped on filter papers for preserving moisture. Green peach aphids (Myzus Persicae Sulzer) were maintained on cabbage. Leaves (Diameter=3 cm) of approximately 15-30 aphids were put in the culture dishes. Bioactivity tests were used the method of Airbrush Foliar Spray, pressure=10 psi (0.7 kg/cm2), spray volume=0.5 mL. The studies were conducted at […] 25±1 C in incubator cabinets with 60±5% RH. Survey the survival aphids after 48 h and calculate the death rates.

cucumber downy mildew = test: Protectant activity in vivo (whole plant), cucumber downy mildew; conditions: protectant activity
Procedure: (§1) The method is as followed: The whole plant is used in this test. The compound is dissolved in a proper solvent to get mother solution. The proper solvent is selected from acetone, methanol, DMF and so on according to their dissolving capability to the sample. […] The testing solution is sprayed to the host plant by a special plant sprayer. The plant is inoculated with fungus after 24 hours. According to the infecting characteristic of fungus, the plant is stored in a humidity chamber and then transferred into greenhouse after infection is finished. And the other plants are placed in greenhouse directly.

wheat powdery mildew = test: Protectant activity in vivo (whole plant), wheat powdery mildew; conditions: for control effect against wheat powdery mildew (%): protectant activity
Procedure: as §1

Row | SMILES | Insecticidal activity against peach aphid (%) ([1]; 10 mg/L) | Insecticidal activity against peach aphid (%) ([1]; 100 mg/L) | Insecticidal activity against peach aphid (%) ([1]; 600 mg/L) | control effect against cucumber downy mildew(%) (cucumber downy mildew; 12.5 mg/L) | control effect against cucumber downy mildew(%) (cucumber downy mildew; 25 mg/L) | control effect against cucumber downy mildew(%) (cucumber downy mildew; 50 mg/L) | control effect against cucumber downy mildew(%) (cucumber downy mildew; 100 mg/L) | control effect against cucumber downy mildew(%) (cucumber downy mildew; 400 mg/L) | control effect against wheat powdery mildew (%) (wheat powdery mildew; 6.25 mg/L) | control effect against wheat powdery mildew (%) (wheat powdery mildew; 25 mg/L) | control effect against wheat powdery mildew (%) (wheat powdery mildew; 100 mg/L) | control effect against wheat powdery mildew (%) (wheat powdery mildew; 400 mg/L) | protectant activity against wheat powdery mildew in vivo (wheat powdery mildew; 1.6 ppm) [%] | control against Green Peach Aphid (death rate) ([1]; 10 ppm, after 48 h)
1 | CCc1ncnc(NCCc2cnn(-c3ccc(F)cc3)c2)c1Cl [Compound 522] | 33 | 96 | 100 | – | – | – | – | – | – | – | – | – | – | –
2 | COc1ccc(-n2cc(CCNc3ncnc(C(F)F)c3Cl)cn2)cc1 [Compound 868] | – | – | – | 85 | 100 | 100 | 100 | 100 | 100 | 100 | 100 | 100 | 80 | –
3 | Cc1ncnc(NCCc2cnn(-c3ccc(C(F)(F)F)cc3)c2)c1Cl [Compound 309] | – | – | – | – | – | – | – | – | 80 | 85 | 90 | 100 | – | –
4 | COc1ccc(-n2cc(CCNc3ncnc(C)c3Cl)cn2)cc1 [Compound 312] | – | – | – | – | 100 | 100 | 100 | 100 | 95 | 100 | 100 | 100 | – | –
5 | Cc1ccc(-n2cc(CCNc3ncnc(C(F)F)c3Cl)cn2)cc1 [Compound 853] | – | – | – | – | 80 | 100 | 100 | 100 | – | – | – | – | – | –
6 | CCc1ncnc(NCCc2cnn(-c3ccc(OC)cc3)c2)c1Cl [Compound 590] | – | – | – | – | 100 | 100 | 100 | 100 | – | – | – | – | – | –
7 | CCc1ncnc(NCCc2cnn(-c3ccc(C(F)(F)F)cc3)c2)c1Cl [Compound 587] | – | 93 | 100 | – | – | – | – | – | – | – | – | – | – | –
8 | CCc1ncnc(NCCc2cnn(-c3ncccc3Cl)c2)c1Cl [Compound 4733] | 88 | 100 | 100 | – | – | – | – | – | – | – | – | – | – | more than 80%
9 | COc1ccc(-n2cc(CCNc3nc(C)nc(C)c3Cl)cn2)cc1 [Compound 1424] | – | – | – | – | 98 | 100 | 100 | 100 | – | – | – | – | – | –
10 | CCc1ncnc(NCCc2cnn(-c3ccc(C)cc3)c2)c1Cl [Compound 575] | 73 | 88 | 92 | – | – | – | – | – | – | – | – | – | – | –
11 | CCc1ncnc(NCCc2cnn(-c3ccc(Cl)cc3Cl)c2)c1Cl [Compound 539] | – | – | – | – | 100 | 100 | 100 | 100 | – | – | – | – | – | –
12 | Cc1ncnc(NCCc2cnn(-c3ccc(Cl)cc3Cl)c2)c1Cl [Compound 261] | – | – | – | 100 | 100 | 100 | 100 | 100 | 50 | 60 | 80 | 100 | – | –
